Assay results as given in patent publication US9487554B2, “Estra-1,3,5(10),16-tetraene-3-carboxamide derivatives, processes for their preparation, pharmaceutical preparations comprising them and their use for preparing medicaments” (BAYER INTELLECTUAL PROPERTY GmbH, priority 2011, dated 2016).
“And” between values parts separate entries of the source, which are not always exact repeats. Identical values can stand only once.

Molecular target: recombinant human AKR1C3 (Homo sapiens (Human), UniProt P42330)
Test: AKR1C3 enzyme inhibition assay (Coumberone to Coumberol fluorescence)
Assay type: biochemical
Settings: individual experimental determinations
Procedure: The AKR1C3-inhibitory activity of the substances of the present invention was measured in the AKR1C3 assay described in the paragraphs below.
Essentially, the enzyme activity is measured by quantification of the Coumberol from Coumberone (Halim, M., Yee, D. J., and Sames, D., J. AM. CHEM. SOC. 130, 14123-14128 (2008) and Yee, D. J., Balsanek, V., Bauman, D. R., Penning, T. M., and Sames, D., Proc. Natl. Acad. Sci. USA 103, 13304-13309 (2006)). In this test, the increase of the highly fluorescent Coumberol by NADPH—(nicotinamide adenine dinucleotide phosphate)-dependent reduction of the non-fluorescent Coumberone by AKR1C3 can be determined.
The enzyme used was recombinant human AKR1C3 (Aldo-keto reductase family 1 member C3) (GenBank Accession No. NM_003739). This was expressed in E. coli as GST (glutathione S transferase) fusion protein and purified by glutathione Sepharose affinity chromatography. The GST was removed by digestion with thrombin and subsequent size exclusion chromatography (Dufort, I., Rheault, P., Huang, X F., Soucy, P., and Luu-The, V., Endocrinology 140, 568-574 (1999)).
For the assay, 50 nl of a 100-fold concentrated solution of the test substance in DMSO were pipetted into a black low-volume 384-well microtiter plate (Greiner Bio-One, Frickenhausen, Germany), 2.0 μl of a solution of AKR1C3 in assay buffer [50 mM potassium phosphate buffer pH 7, 1 mM DTT, 0.0022% (w/v) Pluronic F-127, 0.01% BSA (w/v) and protease inhibitor cocktail (Complete, EDTA-free Protease Inhibitor Cocktail from Roche)] were added and the mixture was incubated for 15 min to allow pre-binding of the substances to the enzyme prior to the enzyme reaction. The enzyme reaction was then started by addition of 3 μl of a solution of NADPH (16.7 μM→final concentration in 5 μl of assay volume is 10 μM) and Coumberone (0.5 μM→final concentration in 5 μl of assay volume is 0.3 μM) in assay buffer, and the resulting mixture was incubated at 22° C. for the reaction time of 90 min. The concentration of the AKR1C3 was adapted to the respective activity of the enzyme preparation and adjusted such that the assay was carried out in the linear range. Typical concentrations were in the region of 1 nM. The reaction was stopped by addition of 5 μl of a stop solution consisting of the inhibitor EM-1404 [F. Labrie et al. U.S. Pat. No. 6,541,463, 2003] (2 μM→final concentration in […] is 1 μM). The fluorescence of the Coumberole was then measured at 520 nm (excitation at 380 nm) using a suitable measuring instrument (Pherastar from BMG Labtechnologies). The intensity of the fluorescence was used as a measure of the amount of Coumberole formed and thus of the enzyme activity of AKR1C3. The data were normalized (enzyme reaction without inhibitor=0% inhibition; all other assay components, but no enzyme=100% inhibition).

Sequence of recombinant human AKR1C3 (P42330 whole entry): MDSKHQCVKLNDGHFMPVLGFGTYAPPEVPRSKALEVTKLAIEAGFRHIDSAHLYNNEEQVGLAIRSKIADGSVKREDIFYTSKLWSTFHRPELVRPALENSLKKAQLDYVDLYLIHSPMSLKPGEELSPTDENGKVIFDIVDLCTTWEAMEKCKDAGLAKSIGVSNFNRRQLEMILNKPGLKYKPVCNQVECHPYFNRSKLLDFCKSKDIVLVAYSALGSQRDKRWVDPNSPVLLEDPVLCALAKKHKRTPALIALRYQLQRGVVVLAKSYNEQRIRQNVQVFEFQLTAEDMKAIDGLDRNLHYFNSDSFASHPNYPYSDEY

SMILES	IC50
C[C@]12CC[C@@H]3c4ccc(C(=O)N[C@@H]5CCC[C@@H]5C(=O)O)cc4CC[C@H]3[C@@H]1CC=C2c1cncc(F)c1 (relative stereo) [Example 11, (1R*,2S*)-2-({[17-(5-Fluoropyridin-3-yl)estra-1,3,5(10),16-tetraen-3-yl]carbonyl}amino)-cyclopentane-1-carboxylic acid]	2.2 nM and 1.8 nM
C[C@]12CC[C@@H]3c4ccc(C(=O)NCC5(C(=O)O)CCOCC5)cc4CC[C@H]3[C@@H]1CC=C2c1cncc(F)c1 [Example 1, 4-[({[17-(5-Fluoropyridin-3-yl)estra-1,3,5(10),16-tetraen-3-yl]carbonyl}amino)methyl]-3,4,5,6-tetrahydro-2H-pyran-4-carboxylic acid]	1.4 nM and 1.9 nM
C[C@]12CC[C@@H]3c4ccc(C(=O)NCC5(C(=O)O)CCCC5)cc4CC[C@H]3[C@@H]1CC=C2c1cncc(F)c1 [Example 4, 1-[({[17-(5-Fluoropyridin-3-yl)estra-1,3,5(10),16-tetraen-3-yl]carbonyl}amino)methyl]-cyclopentane-1-carboxylic acid]	13.9 nM and 8.9 nM
C[C@]12CC[C@@H]3c4ccc(C(=O)N5CCC(C(=O)O)CC5)cc4CC[C@H]3[C@@H]1CC=C2c1cncc(F)c1 [Example 6, 1-{[17-(5-Fluoropyridin-3-yl)estra-1,3,5(10),16-tetraen-3-yl]carbonyl}piperidine-4-carboxylic acid]	21.1 nM and 21 nM
CC(C)(NC(=O)c1ccc2c(c1)CC[C@@H]1[C@@H]2CC[C@]2(C)C(c3cncc(F)c3)=CC[C@@H]12)C(=O)O [Example 7, N-{[17-(5-Fluoropyridin-3-yl)estra-1,3,5(10),16-tetraen-3-yl]carbonyl}-2-methylalanine]	8.5 nM and 9.6 nM
C[C@]12CC[C@@H]3c4ccc(C(=O)NCCCC(=O)O)cc4CC[C@H]3[C@@H]1CC=C2c1cncc(F)c1 [Example 8, 4-({[17-(5-Fluoropyridin-3-yl)estra-1,3,5(10),16-tetraen-3-yl]carbonyl}amino)butanoic acid]	8.5 nM and 6.8 nM
C[C@@H](CC(=O)O)NC(=O)c1ccc2c(c1)CC[C@@H]1[C@@H]2CC[C@]2(C)C(c3cncc(F)c3)=CC[C@@H]12 [Example 12, (S)-3-({[17-(5-Fluoropyridin-3-yl)estra-1,3,5(10),16-tetraen-3-yl]carbonyl}amino)-butanoic acid]	1.2 nM and 1.7 nM
C[C@H](CC(=O)O)NC(=O)c1ccc2c(c1)CC[C@@H]1[C@@H]2CC[C@]2(C)C(c3cncc(F)c3)=CC[C@@H]12 [Example 13, (R)-3-({[17-(5-Fluoropyridin-3-yl)estra-1,3,5(10),16-tetraen-3-yl]carbonyl}amino)-butanoic acid]	0.8 nM and 1.8 nM
COc1cncc(C2=CC[C@H]3[C@@H]4CCc5cc(C(=O)NCC(C)(C)C(=O)O)ccc5[C@H]4CC[C@]23C)c1 [Example 14, 3-({[17-(5-Methoxypyridin-3-yl)estra-1,3,5(10),16-tetraen-3-yl]carbonyl}amino)-2,2-dimethylpropanoic acid]	9.8 nM and 17.9 nM
COc1cncc(C2=CC[C@H]3[C@@H]4CCc5cc(C(=O)NCCC(=O)O)ccc5[C@H]4CC[C@]23C)c1 [Example 15, N-{[17-(5-Methoxypyridin-3-yl)estra-1,3,5(10),16-tetraen-3-yl]carbonyl}-β-alanine]	6.9 nM and 7.2 nM
COc1cncc(C2=CC[C@H]3[C@@H]4CCc5cc(C(=O)N(C)CCC(=O)O)ccc5[C@H]4CC[C@]23C)c1 [Example 16, N-{[17-(5-Methoxypyridin-3-yl)estra-1,3,5(10),16-tetraen-3-yl]carbonyl}-N-methyl-β-alanine]	4.4 nM and 6.9 nM
C[C@]12CC[C@@H]3c4ccc(C(=O)NCCC(=O)O)cc4CC[C@H]3[C@@H]1CC=C2c1cncnc1 [Example 17, N-{[17-(Pyrimidin-5-yl)estra-1,3,5(10),16-tetraen-3-yl]carbonyl}-β-alanine]	29.7 nM and 37.6 nM
